Experimental data: US9566290B2, “Boron-containing small molecules” (Anacor Pharmaceuticals, Inc., priority 2005, dated 2017)
Values after ≈ are worked out from the molar mass of the structure shown. Like-named read-outs stand apart in the source and are kept apart here. Each block holds one molecule with its values, some of them ahead of it.

Key:
[1] = system: Saccharomyces cerevisiae strain ATCC 201388; experiment: MIC (NCCLS M27, YPD or synthetic defined media), haploid parental strain; assay type: cell-based
Experimental: (§1) The haploid Saccharomyces cerevisiae strain ATCC 201388 was used in the selection of C10 resistant mutants. Spontaneous and EMS-induced resistant mutants were isolated from YPD agar plates containing 4×, 8×, 16×MIC of C10. All minimal inhibitory concentrations (MIC) were determined using NCCLS protocol M27 with the exception of using YPD or synthetic defined media. All yeast and molecular genetic manipulations were essentially performed as described by Guthrie C., et al., Methods in Enzymology, 350: Part B, (2002).
(§2) The minimal inhibitory concentration (MIC) was essentially performed following the NCCLS guidelines outlined in the M27 protocol with the exception of using YPD or synthetic defined media (SDM).

[2] = system: S. cerevisiae C10 resistant mutants (CDC60 editing domain mutations); experiment: MIC (NCCLS M27), spontaneous and EMS induced C10 resistant mutants; assay type: cell-based, Saccharomyces cerevisiae
Experimental: as §1
Resistant mutants appeared after 2 d incubation at 30° C. Frequency of resistance was determined by dividing the number of resistant mutants by the total number of cells plated as determined by plating dilutions of the overnight culture on YPD plates.
A 2.5 mL of the overnight culture, which was grown in YPD media, was centrifuged at 700×g for 5 minutes. The cell pellet was resuspended in 10 mL 50 mM potassium phosphate buffer, pH 7.0. The cell suspension was centrifuged again and the cell pellet was resuspended in phosphate buffer to obtain a cell density of 5×10^7 cells/mL as determined by counting the cells using a Petroff Hausser Counting Chamber (Horsham, Pa. USA). The cell suspension was shaken with 300 μL of EMS (Alfa Aesar, Ward Hill, Mass., USA) for 30 min. at 30° C. The mutagenesis was stopped by adding 10% (w/v) sodium thiosulfate (Sigma-Aldrich, St. Louis, Mo., USA), and the cells were pelleted by centrifugation at 700×g for 5 min. and resuspended in 1 mL sterile H2O. This was repeated once more before the cells were plated on YPD agar plates containing 1.6 μg/mL of C10.
as §2

[3] = assay type: in vitro ADME, human
Experimental: C10, 5-fluoro-1,3-dihydro-1-phenyl-2,1-benzoxaborole, C1, and 5-fluoro-1,3-dihydro-1-(3-hydroxymethylphenyl)-2,1-benzoxaborole, formulated at 10% w/v in ethanol, were tested. A single aliquot (10 μl) of each formulation was dosed to the top of human nail plates using the nail penetration procedure described below, and allowed to stand for 3-days. The dosed area was washed, and then the cotton ball bed supporting the nail and the nail samples were collected at the end of the incubation period, stored at 4° C. and analyzed for drug using LC/MS/MS.
Details of the nail incubation have been previously described^9, 10. […] The supporting cotton ball under the nail was wetted by normal saline providing moisture for the nail plate, and the degree of hydration was monitored and controlled during the experiment. […]
LC/MS/MS (API3000, Applied Biosystems, Foster City, Calif.) was used to quantitate the amounts of non-radiolabeled oxaboroles, C10, 5-fluoro-1,3-dihydro-1-phenyl-2,1-benzoxaborole, C1, and 5-fluoro-1,3-dihydro-1-(3-hydroxymethylphenyl)-2,1-benzoxaborole in samples from the nail penetration studies. […] After centrifugation, the filtrate from the cotton ball samples was transferred to autosampler vials and analyzed by LC/MS/MS. […]

[4] = system: S. cerevisiae ATCC201388 bearing pRS425 or CDC60 on pRS425; experiment: MIC with over-expression of wild type CDC60; assay type: cell-based, Saccharomyces cerevisiae; details: Saccharomyces cerevisiae
Excerpt: as §2
A 4.0 kb BamH I-Sal I DNA fragment containing the entire CDC60 open reading frame (ORF) and 700 bp of upstream sequence was amplified using KOD DNA polymerase, S. cerevisiae genomic DNA (Novagen, Madison, Wis., USA), and the primers GAGGGATCCGGTTAGTTTTAGTTCGCGAGTGACCTG and GAGGTCGACGATTTCTGGTTGCTGTTTATTGATCTT (Operon, Alameda, Calif., USA). This DNA fragment was then cloned into the […] multi-copy plasmid pRS425, and transformed into S. cerevisiae ATCC201388 (Gietz, R D et al., Methods in Enzymology 305: 87-96 (2002)).

[5] = Table 2, C10 resistant mutant (C)
[6] = Table 2, C10 resistant mutant (G)
[7] = Table 2, C10 resistant mutant (H)
[8] = Saccharomyces cerevisiae, ATCC201388, Table 2, ATCC201388, read-out: MIC
[9] = Saccharomyces cerevisiae, Table 2, C10 resistant mutant (C)
[10] = Saccharomyces cerevisiae, Table 2, C10 resistant mutant (G)
[11] = Saccharomyces cerevisiae, Table 2, C10 resistant mutant (H)

Molecule: C[C@@H]([C@H](N)C(=O)N[C@H](C(=O)O)[C@H]1O[C@@H](n2ccc(=O)[nH]c2=O)[C@H](O)[C@@H]1O)[C@H](O)c1ccc(O)cn1 [Nikkomycin Z]
- MIC ([1]; Table 2, ATCC201388): 64 µg/mL (≈ 129 µM)
- resistance of C10 resistant mutants to other antifungals, in words [2]: not resistant
- MIC [2, 5]: 64 µg/mL (≈ 129 µM)
- MIC [2, 6]: 64 µg/mL (≈ 129 µM)
- MIC [2, 7]: 64 µg/mL (≈ 129 µM)

Molecule: CCC(C)n1ncn(-c2ccc(N3CCN(c4ccc(OCC5COC(Cn6cncn6)(c6ccc(Cl)cc6Cl)O5)cc4)CC3)cc2)c1=O (centres unmarked) [Itraconazole]
- MIC [1, 8]: 0.125 µg/mL (≈ 0.177 µM)
- MIC [2, 9]: 0.125 µg/mL (≈ 0.177 µM)
- MIC [2, 10]: 0.125 µg/mL (≈ 0.177 µM)
- MIC [2, 11]: 0.125 µg/mL (≈ 0.177 µM)

Molecule: Tunicamycin
- MIC ([1]; Table 2, ATCC201388): 8 µg/mL
- resistance of C10 resistant mutants to other antifungals, in words [2]: not resistant
- MIC [2, 5]: 8 µg/mL
- MIC [2, 6]: 8 µg/mL
- MIC [2, 7]: 8 µg/mL

Molecule: Aculeacin A
- MIC ([1]; Table 2, ATCC201388): 4 µg/mL
- resistance of C10 resistant mutants to other antifungals, in words [2]: not resistant
- MIC [2, 5]: 4 µg/mL
- MIC [2, 6]: 4 µg/mL
- MIC [2, 7]: 4 µg/mL

Molecule: C[C@@H]1C[C@@H]([C@H](O)CC2CC(=O)NC(=O)C2)C(=O)[C@@H](C)C1 [Cyclohexamide]
- MIC ([1]; Table 2, ATCC201388): <0.06 µg/mL
- resistance of C10 resistant mutants to other antifungals, in words [2]: not resistant
- MIC [2, 5]: <0.06 µg/mL
- MIC [2, 6]: <0.06 µg/mL
- MIC [2, 7]: <0.06 µg/mL

- penetration of the nail plate, in words [3]: penetrates the nail plate poorly
Molecule: Fc1ccc2c(c1)COB2c1ccccc1 [Compound 3, 5-fluoro-1,3-dihydro-1-phenyl-2,1-benzoxaborole]

Molecule: OC(Cn1cncn1)(Cn1cncn1)c1ccc(F)cc1F [Fluconazole, reference compound]
- MIC ([4]; ATCC201388, CDC60 on pRS425 (20 copies)): 2 µg/mL (≈ 6.53 µM)
- MIC ([4]; ATCC201388, pRS425 Plasmid control): 2 µg/mL (≈ 6.53 µM)

Molecule: C[C@@H]1[C@H](O)[C@@H](C)/C=C/C=C/C=C/C=C/C=C/C=C/C=C/[C@H](O[C@@H]2O[C@H](C)[C@@H](O)[C@H](N)[C@@H]2O)C[C@@H]2O[C@](O)(C[C@@H](O)C[C@@H](O)[C@H](O)CC[C@@H](O)C[C@@H](O)CC(=O)O[C@H]1C)C[C@H](O)[C@H]2C(=O)O [Amphotericin B]
- MIC ([1]; Table 2, ATCC201388): 0.125 µg/mL (≈ 0.135 µM)
- resistance of C10 resistant mutants to other antifungals, in words [2]: not resistant

Molecule: CN(C/C=C/C#CC(C)(C)C)Cc1cccc2ccccc12 [Terbinafine]
- MIC [1, 8]: 4 µg/mL (≈ 13.7 µM)
- resistance of C10 resistant mutants to other antifungals, in words [2]: not resistant
- MIC [2, 9]: 4 µg/mL (≈ 13.7 µM)
- MIC [2, 10]: 4 µg/mL (≈ 13.7 µM)
- MIC [2, 11]: 4 µg/mL (≈ 13.7 µM)

Molecule: C/C=C/C/C=C/CCC(=O)[C@H]1O[C@H]1C(N)=O [Cerulenin]
- MIC ([1]; Saccharomyces cerevisiae, ATCC201388, Table 1, haploid strain ATCC201388, read-out: MIC): 1 µg/mL (≈ 4.48 µM)
- MIC [1, 8]: 0.5 µg/mL (≈ 2.24 µM)
- resistance of C10 resistant mutants to other antifungals, in words [2]: not resistant
- MIC ([2]; Saccharomyces cerevisiae, Table 1, mutant (A), CDC60 N415D): 0.5 µg/mL (≈ 2.24 µM)
- MIC ([2]; Saccharomyces cerevisiae, Table 1, mutant (B), CDC60 R316I): 0.5 µg/mL (≈ 2.24 µM)
- MIC ([2]; Saccharomyces cerevisiae, Table 1, mutant (C), CDC60 C326F): 0.5 µg/mL (≈ 2.24 µM)
- MIC ([2]; Saccharomyces cerevisiae, Table 1, mutant (D), CDC60 G405V): 0.5 µg/mL (≈ 2.24 µM)
- MIC ([2]; Saccharomyces cerevisiae, Table 1, mutant (E), CDC60 C326R): 0.5 µg/mL (≈ 2.24 µM)
- MIC ([2]; Saccharomyces cerevisiae, Table 1, mutant (F), CDC60 D487G): 0.5 µg/mL (≈ 2.24 µM)
- MIC ([2]; Saccharomyces cerevisiae, Table 1, mutant (G), CDC60 L315V): 0.5 µg/mL (≈ 2.24 µM)
- MIC ([2]; Saccharomyces cerevisiae, Table 1, mutant (H), CDC60 T314M): 0.5 µg/mL (≈ 2.24 µM)
- MIC ([2]; Saccharomyces cerevisiae, Table 1, mutant (I), CDC60 S416L): 1 µg/mL (≈ 4.48 µM)
- MIC ([2]; Saccharomyces cerevisiae, Table 1, mutant (J), CDC60 D487N): 1 µg/mL (≈ 4.48 µM)
- MIC ([2]; Saccharomyces cerevisiae, Table 1, mutant (K), CDC60 T319I): 1 µg/mL (≈ 4.48 µM)
- MIC [2, 9]: 0.5 µg/mL (≈ 2.24 µM)
- MIC [2, 10]: 0.5 µg/mL (≈ 2.24 µM)
- MIC [2, 11]: 0.5 µg/mL (≈ 2.24 µM)

- melting point: 79 to 88 °C
Molecule: [O-][S+](c1ccc(C(F)(F)F)cc1)c1ccc2c(c1)B(O)OC2 (centres unmarked) [C93, 6-(4-(trifluoromethyl)phenylsulfinyl)benzo[c][1,2]oxaborol-1(3H)-ol]

- melting point: 120 to 124 °C
Molecule: COc1ccc2c(ccn2-c2ccc3c(c2)B(O)OC3)c1 [C68, 6-(5-methoxy-1H-indol-1-yl)benzo[c][1,2]oxaborol-1(3H)-ol]
